Measurements reported in ChEMBL document CHEMBL4680158, “C6-O-alkylated 7-deazainosine nucleoside analogues: Discovery of potent and selective anti-sleeping sickness agents” (Eur J Med Chem, 2020).

Key:
Trypanosoma brucei [1] = experiment: (§1) Inhibition of Trypanosoma brucei P2 transporter assessed as reduction in [3H]-adenosine uptake measured after 60 sec by scintillation counting method
Trypanosoma brucei [2] = experiment: (§2) Inhibition of Trypanosoma brucei P1 transporter assessed as reduction in [3H]-adenosine uptake measured after 60 sec by scintillation counting method
[3] = Inhibition of Trypanosoma brucei P1 transporter assessed as reduction in [3H]-adenosine uptake by scintillation counting method
[4] = Inhibition of Trypanosoma brucei P2 transporter assessed as reduction in [3H]-adenosine uptake by scintillation counting method
[5] = as §1
[6] = as §2
[7] = tested on: Trypanosoma brucei rhodesiense; experiment: Antitrypanosomal activity against Trypanosoma brucei rhodesiense assessed as reduction in parasite growth incubated for 3 days by resazurin dye based fluorescence assay; assay type: functional, organism-based; settings: 72 h
[8] = Selectivity index, ratio of EC50 for cytotoxicity against human MRC5 cells to EC50 for antitrypanosomal activity against Trypanosoma brucei rhodesiense; assay type: toxicity, cell-based; settings: read-out: Ratio EC50
[9] = tested on: Trypanosoma brucei brucei; experiment: Antitrypanosomal activity against Trypanosoma brucei brucei Lister 427 blood stream forms assessed as reduction in parasite viability incubated for 48 hrs by resazurin dye based fluorescence assay; assay type: functional, organism-based; settings: Lister 427, 48 h
[10] = Selectivity index, ratio of EC50 for cytotoxicity against human MRC5 cells to EC50 for antitrypanosomal activity against Trypanosoma brucei brucei; assay type: toxicity, cell-based; settings: read-out: Ratio EC50
[11] = Resistance factor, ratio of EC50 for antitrypanosomal activity against drug resistant Trypanosoma brucei harboring TbAT1 deficient to antitrypanosomal activity against Trypanosoma brucei brucei Lister 427 blood stream form; assay type: functional
[12] = Resistance factor, ratio of EC50 for antitrypanosomal activity against drug resistant Trypanosoma brucei ISMR1 to antitrypanosomal activity against Trypanosoma brucei brucei Lister 427 blood stream form; assay type: functional
[13] = Resistance factor, ratio of EC50 for antitrypanosomal activity against drug resistant Trypanosoma brucei B48 to antitrypanosomal activity against Trypanosoma brucei brucei Lister 427 blood stream form; assay type: functional
[14] = tested on: Trypanosoma brucei brucei; experiment: Antitrypanosomal activity against Trypanosoma brucei brucei assessed as reduction in parasite growth incubated for 3 days by resazurin dye based fluorescence assay; assay type: functional, organism-based; settings: 72 h
Trypanosoma brucei [15] = experiment: Antitrypanosomal activity against drug resistant Trypanosoma brucei harboring TbAT1 deficient assessed as reduction in parasite viability incubated for 48 hrs by resazurin dye based fluorescence assay; assay type: functional, organism-based
MRC5 = experiment: Cytotoxicity against human MRC5 cells assessed as reduction in cell viability incubated for 3 days by resazurin dye based fluorescence assay; settings: MRC5, 72 h
Trypanosoma brucei [16] = experiment: Antitrypanosomal activity against drug resistant Trypanosoma brucei ISMR1 assessed as reduction in parasite viability incubated for 48 hrs by resazurin dye based fluorescence assay; assay type: functional, organism-based; settings: ISMR1, 48 h
Trypanosoma brucei [17] = experiment: Antitrypanosomal activity against drug resistant Trypanosoma brucei B48 assessed as reduction in parasite viability incubated for 48 hrs by resazurin dye based fluorescence assay; assay type: functional, organism-based; settings: B48, 48 h

Q: For `Nc1ncnc2c1ncn2[C@@H]1O[C@H](CO)[C@@H](O)[C@H]1O`, which Km (Trypanosoma brucei [1]) is on record?
A: Its Km is 0.53 µM.

Q: What about the Km (Trypanosoma brucei [2]) of the same compound?
A: The Km was 0.12 µM.

Q: Which results are given for `Nc1ncnc2c1ccn2[C@@H]1O[C@H](CO)[C@@H](O)[C@H]1O` [TUBERCIDIN]?
A: Ki [3]: 78000 nM; Ki [4]: 3800 nM

Q: Which results are given for `CCOc1ncnc2c1c(Cl)cn2[C@@H]1O[C@H](CO)[C@@H](O)[C@H]1O`?
A: Ki [5]: 139000 nM; Ki [6]: 99000 nM; EC50 [7]: 57 nM; selectivity ratio [8]: > 578; EC50 [9]: 79 nM; selectivity ratio [10]: > 275; Ratio EC50 [11]: 1.43; Ratio EC50 [12]: 2.45; Ratio EC50 [13]: 1.7; EC50 [14]: 120 nM; EC50 (Trypanosoma brucei [15]): 113 nM; EC50 (MRC5): ≥ 64000 nM; EC50 (Trypanosoma brucei [16]): 194 nM; EC50 (Trypanosoma brucei [17]): 134 nM
